In data set [1] the target is T1, Breast Cancer Resistance Protein (BCRP) (Homo sapiens, UniProt Q9UNQ0).
T1 sequence (Q9UNQ0 1-655): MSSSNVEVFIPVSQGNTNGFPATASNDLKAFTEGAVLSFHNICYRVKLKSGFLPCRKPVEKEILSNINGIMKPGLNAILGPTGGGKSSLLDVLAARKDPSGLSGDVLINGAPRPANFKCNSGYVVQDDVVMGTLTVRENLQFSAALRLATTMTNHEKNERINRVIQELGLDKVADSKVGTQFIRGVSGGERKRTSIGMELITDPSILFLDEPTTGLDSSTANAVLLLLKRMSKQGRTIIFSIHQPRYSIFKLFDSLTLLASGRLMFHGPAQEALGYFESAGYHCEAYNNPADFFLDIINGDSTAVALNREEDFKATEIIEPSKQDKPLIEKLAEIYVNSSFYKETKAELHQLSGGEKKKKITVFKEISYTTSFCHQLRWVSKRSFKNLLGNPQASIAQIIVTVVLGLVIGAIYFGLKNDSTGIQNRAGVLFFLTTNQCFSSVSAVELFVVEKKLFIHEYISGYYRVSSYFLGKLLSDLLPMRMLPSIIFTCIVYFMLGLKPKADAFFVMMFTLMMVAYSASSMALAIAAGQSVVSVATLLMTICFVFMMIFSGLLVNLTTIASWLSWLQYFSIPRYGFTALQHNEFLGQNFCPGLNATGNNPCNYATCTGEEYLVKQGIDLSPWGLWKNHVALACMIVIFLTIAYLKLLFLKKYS
Kind of data set: Efflux pump substrate, BCRP. The data set is classed as in vitro ADME.

Another data set concerns the target P-glycoprotein (P-gp) (Homo sapiens, UniProt P08183). As to the kind of experiment: Efflux pump substrate, P-gp. The data set is classed as in vitro ADME.
The nature of the next data set: Metabolic stability. The settings on record: human, microsomes.
Data set [2] deals with Hh pathway (endogenous Gli1 mRNA levels), ASZ-001 cells. Kind of data set: cells. The settings on record: Mus musculus, ASZ001, 48 h, read-out: IC50 (Hh pathway inhibition, Gli1 mRNA), ASZ-001 cells, 48 h incubation, Mean ± SEM.
Data set [3] in a line: Parallel artificial membrane permeability assay. The settings on record: hexadecane membrane.
In the next data set the target is CYP3A4 (Homo sapiens, UniProt P08684). As to the kind of experiment: CYP3A4 inhibition.
Data set [4] has as its system Hh pathway (endogenous Gli1 mRNA levels), ASZ-001 cells. The settings on record: at the concentrations tested.

The term half-life denotes the time in which the quantity being followed falls by half. Low readings indicate rapid decline, high ones slow decline. What is called IC50 is the concentration that gives 50% inhibition. The term microsomal CLint denotes the rate of metabolic loss divided by the concentration.

Sequence of CYP3A4 (P08684 whole entry): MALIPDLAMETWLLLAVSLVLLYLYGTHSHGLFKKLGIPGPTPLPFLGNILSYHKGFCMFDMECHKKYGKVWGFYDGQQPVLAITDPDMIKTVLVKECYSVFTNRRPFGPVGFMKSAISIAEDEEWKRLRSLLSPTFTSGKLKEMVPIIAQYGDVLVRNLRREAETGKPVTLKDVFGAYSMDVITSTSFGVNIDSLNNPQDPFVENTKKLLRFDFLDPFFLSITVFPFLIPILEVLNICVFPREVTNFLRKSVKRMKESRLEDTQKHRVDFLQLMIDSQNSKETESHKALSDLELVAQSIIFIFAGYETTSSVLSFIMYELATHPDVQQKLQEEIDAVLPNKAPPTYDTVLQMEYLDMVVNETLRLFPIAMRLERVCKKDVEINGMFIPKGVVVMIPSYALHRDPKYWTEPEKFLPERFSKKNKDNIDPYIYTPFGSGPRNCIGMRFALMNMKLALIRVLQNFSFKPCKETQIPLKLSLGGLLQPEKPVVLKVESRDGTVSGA
Sequence of P-glycoprotein (P-gp) (P08183 whole entry): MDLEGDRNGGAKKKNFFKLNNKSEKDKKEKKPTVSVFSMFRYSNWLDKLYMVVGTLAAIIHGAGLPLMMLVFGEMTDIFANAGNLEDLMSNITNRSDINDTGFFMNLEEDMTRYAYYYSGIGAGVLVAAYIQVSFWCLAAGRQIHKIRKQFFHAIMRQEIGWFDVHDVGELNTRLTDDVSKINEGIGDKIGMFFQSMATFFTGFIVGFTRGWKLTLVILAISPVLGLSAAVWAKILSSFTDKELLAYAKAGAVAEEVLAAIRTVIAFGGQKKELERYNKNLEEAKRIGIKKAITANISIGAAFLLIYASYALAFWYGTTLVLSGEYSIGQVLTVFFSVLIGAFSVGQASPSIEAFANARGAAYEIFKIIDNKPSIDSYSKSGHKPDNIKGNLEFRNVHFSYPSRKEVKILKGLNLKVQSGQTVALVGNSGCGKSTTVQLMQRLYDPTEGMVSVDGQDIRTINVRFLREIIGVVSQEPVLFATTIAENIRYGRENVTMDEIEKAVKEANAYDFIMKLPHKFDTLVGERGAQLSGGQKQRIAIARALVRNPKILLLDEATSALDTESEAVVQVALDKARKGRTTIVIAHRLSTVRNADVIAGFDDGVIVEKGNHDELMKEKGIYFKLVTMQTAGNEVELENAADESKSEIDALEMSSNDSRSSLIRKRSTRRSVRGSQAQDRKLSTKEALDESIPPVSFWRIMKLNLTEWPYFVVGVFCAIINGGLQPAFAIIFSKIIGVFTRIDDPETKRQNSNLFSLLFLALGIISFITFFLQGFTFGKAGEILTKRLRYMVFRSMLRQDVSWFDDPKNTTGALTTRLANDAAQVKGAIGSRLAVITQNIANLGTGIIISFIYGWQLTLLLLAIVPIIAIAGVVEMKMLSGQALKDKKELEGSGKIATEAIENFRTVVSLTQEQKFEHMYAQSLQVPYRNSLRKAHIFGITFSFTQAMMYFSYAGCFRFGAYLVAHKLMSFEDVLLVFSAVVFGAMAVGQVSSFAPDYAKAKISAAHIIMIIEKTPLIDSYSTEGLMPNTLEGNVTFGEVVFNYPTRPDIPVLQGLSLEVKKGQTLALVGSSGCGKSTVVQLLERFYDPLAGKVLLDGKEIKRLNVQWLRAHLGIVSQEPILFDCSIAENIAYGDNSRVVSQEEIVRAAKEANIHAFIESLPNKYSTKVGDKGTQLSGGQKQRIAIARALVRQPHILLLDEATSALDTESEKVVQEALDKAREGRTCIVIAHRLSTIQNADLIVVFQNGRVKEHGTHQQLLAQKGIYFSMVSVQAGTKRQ

`CCC(C)n1ncn(-c2ccc(N3CCN(c4ccc(OCC5COC(Cn6cncn6)(c6ccc(Cl)cc6Cl)O5)cc4)CC3)cc2)c1=O` (stereo not shown) [ITZ, Itraconazole]: the “Efflux Pump Substrates, BCRP” value in data set [1] is recorded as “not a substrate”. For the same molecule, the “Efflux Pump Substrates, P-gp” value on P-glycoprotein (P-gp) is “not a substrate”. The half-life in the data set “Metabolic stability” came out at 27 ± 6.2 min.
For `C[C@@]1(c2ccc(Cl)cc2Cl)OC[C@@H](COc2ccc(N3CCN(c4ccc(NC(=O)c5ccc6ccccc6c5)cc4)CC3)cc2)O1` [Compound 11, N-(4-(4-(4-(((2R,4R)-2-(2,4-dichlorophenyl)-2-methyl-1,3-dioxolan-4-yl)methoxy)phenyl)piperazin-1-yl)phenyl)-2-naphthamide], the IC50 in data set [2] was > 10 µM.
For the molecule `CC[C@@H](C)n1ncn(-c2ccc(N3CCN(c4ccc(OC[C@@H]5CO[C@@](C)(c6ccc(Cl)cc6Cl)O5)cc4)CC3)cc2)c1=O` [Compound 2b], the “PAMPA -log Pe” value in data set [3] was determined as 9.0. For the same molecule, half-maximal inhibition against CYP3A4 (IC50) was put at 1.02 µM.
Turning to `C[C@]1(c2ccc(Cl)cc2Cl)OC[C@@H](COc2ccc(N3CCN(c4ccc(NC(=O)c5ccoc5)cc4)CC3)cc2)O1` [Compound 35, N-(4-(4-(4-(((2S,4R)-2-(2,4-dichlorophenyl)-2-methyl-1,3-dioxolan-4-yl)methoxy)phenyl)piperazin-1-yl)phenyl)furan-3-carboxamide], in data set [4], the “Hh pathway inhibition, result in words” value is “inactive”.
On to `C[C@@]1(c2ccc(Cl)cc2Cl)OC[C@@H](COc2ccc(N3CCN(c4ccc(NC(=O)c5ccncc5)cc4)CC3)cc2)O1` [Compound 14, N-(4-(4-(4-(((2R,4R)-2-(2,4-dichlorophenyl)-2-methyl-1,3-dioxolan-4-yl)methoxy)phenyl)piperazin-1-yl)phenyl)isonicotinamide], for which, in data set [2], the IC50 is > 10 µM.
Turning to `C[C@]1(c2ccc(Cl)cc2Cl)OC[C@@H](COc2ccc(N3CCN(c4ccc(NC(=O)c5ccccc5)cc4)CC3)cc2)O1` [Compound 15, N-(4-(4-(4-(((2S,4R)-2-(2,4-dichlorophenyl)-2-methyl-1,3-dioxolan-4-yl)methoxy)phenyl)piperazin-1-yl)phenyl)benzamide], the IC50 in data set [2] is > 10 µM.
On to `C[C@@]1(c2ccc(Cl)cc2Cl)OC[C@@H](COc2ccc(N3CCN(c4ccc(NC(=O)c5cccnc5)cc4)CC3)cc2)O1` [Compound 13, N-(4-(4-(4-(((2R,4R)-2-(2,4-dichlorophenyl)-2-methyl-1,3-dioxolan-4-yl)methoxy)phenyl)piperazin-1-yl)phenyl)nicotinamide], for which the “PAMPA -log Pe” value in data set [3] was determined as 7.9 ± 0.03. The IC50 against CYP3A4 was > 30 µM.
`CC[C@@H](C)n1ncn(-c2ccc(N3CCN(c4ccc(OC[C@@H]5CO[C@](C)(c6ccc(Cl)cc6Cl)O5)cc4)CC3)cc2)c1=O` [Compound 2a]: the IC50 at CYP3A4 is > 20 µM.
Turning to `C[C@@]1(c2ccc(Cl)cc2Cl)OC[C@@H](COc2ccc(N3CCN(c4ccc(NC(=O)c5cccc(O)c5)cc4)CC3)cc2)O1` [Compound 27, N-(4-(4-(4-(((2R,4R)-2-(2,4-dichlorophenyl)-2-methyl-1,3-dioxolan-4-yl)methoxy)phenyl)piperazin-1-yl)phenyl)-3-hydroxybenzamide], the IC50 against CYP3A4 was > 30 µM. Besides, in the data set “Metabolic stability”, the microsomal CLint was < 3 µL/min/mg.
Consider `C[C@@]1(c2ccc(Cl)cc2Cl)OC[C@@H](COc2ccc(N3CCN(c4ccc(NC(=O)c5ccccc5)cc4)CC3)cc2)O1` [Compound 10, N-(4-(4-(4-(((2R,4R)-2-(2,4-dichlorophenyl)-2-methyl-1,3-dioxolan-4-yl)methoxy)phenyl)piperazin-1-yl)phenyl)benzamide], for which the IC50 in data set [2] is > 10 µM.
In the case of `C[C@]1(c2ccc(Cl)cc2Cl)OC[C@@H](COc2ccc(N3CCN(c4ccc(NC(=O)c5ccsc5)cc4)CC3)cc2)O1` [Compound 36, N-(4-(4-(4-(((2S,4R)-2-(2,4-dichlorophenyl)-2-methyl-1,3-dioxolan-4-yl)methoxy)phenyl)piperazin-1-yl)phenyl)thiophene-3-carboxamide], in data set [4], the “Hh pathway inhibition, result in words” value was “inactive”.
As for `C[C@]1(c2ccc(Cl)cc2Cl)OC[C@@H](COc2ccc(N3CCN(c4ccc(NC(=O)c5ccncc5)cc4)CC3)cc2)O1` [Compound 19, N-(4-(4-(4-(((2S,4R)-2-(2,4-dichlorophenyl)-2-methyl-1,3-dioxolan-4-yl)methoxy)phenyl)piperazin-1-yl)phenyl)isonicotinamide], in data set [2], the half-maximal inhibitory concentration (IC50) was > 10 µM.
The same measure, in the same setting: as for `C[C@]1(c2ccc(Cl)cc2Cl)OC[C@@H](COc2ccc(N3CCN(c4ccc(NC(=O)c5ccc6ccccc6c5)cc4)CC3)cc2)O1` [Compound 16, N-(4-(4-(4-(((2S,4R)-2-(2,4-dichlorophenyl)-2-methyl-1,3-dioxolan-4-yl)methoxy)phenyl)piperazin-1-yl)phenyl)-2-naphthamide], the figure is > 10 µM.
As to `C[C@]1(c2ccc(Cl)cc2Cl)OC[C@@H](COc2ccc(N3CCN(c4ccc(NC(=O)c5cccnc5)cc4)CC3)cc2)O1` [Compound 18, N-(4-(4-(4-(((2S,4R)-2-(2,4-dichlorophenyl)-2-methyl-1,3-dioxolan-4-yl)methoxy)phenyl)piperazin-1-yl)phenyl)nicotinamide], at CYP3A4, the IC50 was > 20 µM.

Source of the values: article PMC7450990 (Journal of medicinal chemistry, 2019).
